In patent publication US20110257146A1, “Method of Treating Kcnq Related Disorders Using Organozinc Compounds” (The johns Hopkins University, priority 2006, published 2011):
Values joined by “and” are separate entries in the source; they are usually repeats but may differ in a detail not shown here. Equal entries are not always repeated. “Also recorded” adds a separate entry of the source.

How the values were obtained:
KCNQ1 = molecular target: T1, KCNQ1 (Homo sapiens, UniProt P51787); assay: Whole-cell voltage clamp of CHO cells expressing KCNQ1; type: cell-based; details: 10 μM ZnPy, extracellular
T1 construct: expressed in transfected cells; host or cells: CHO cells
Experimental: Cell culture and transient transfection—Chinese Hamster Ovary (CHO) cells were grown in 50/50 DMEM/F12 (Cellgro) with 10% FBS (Gibco), 100 U/ml penicillin (Cellgro), 100 μg/ml streptomycin (Cellgro) and 2 mM L-glutamine (Gibco). At 24 hours before transfection, cells were split and plated in 60 mm dishes and were transfected with Lipofectamine2000™ reagent (Invitrogen) according to the manufacturer's instruction. At 24 hours after transfection, cells were split and re-plated onto coverslips coated with poly-L-lysine (Sigma). Plasmid expressing CD4 cDNA as a marker was cotransfected with the channel cDNAs of hKCNQ1 (from Dr. Michael Sanguinetti), hKCNQ4 (from Dr. Vitya Vardanyan), rKCNQ2, rKCNQ3, and hKCNQ5 (from Drs. David McKinnon, Mark Shapiro, and Thomas Jentsch). Prior to recording, anti-CD4 Dynabeads (Dynal. Biotech. Inc.) were added into the medium to allow for identification of the transfected cells. Stable lines expressing Kv2.1, hERG, and Kv4.2 were generated by standard protocols using pcDNA3.1 and maintained at complete medium supplemented with 500 μg/ml G418. […]
Electrophysiological Recording—Standard whole-cell recording was used. […] Current and voltage were recorded using an Axopatch-200A amplifier, filtered at 1 kHz and digitized using a DigiData 1322A with pClamp 9.2 software (Axon Instruments, Foster City, Calif.). […]

KCNQ2 = KCNQ2 (Rattus norvegicus, UniProt O88943); assay: Single channel outside-out patch recording of KCNQ2; type: cell-based; parameters: expressed in transfected cells; host or cells: CHO cells
Experimental: For single channel recording procedure, outside-out patch recording was used. The pipettes had resistances of 7-15 MΩ when filled with the intracellular solution of the following composition (mM): KCl 145, MgCl2 1, EGTA 5, HEPES 10, MgATP 5 (pH 7.3). Extracellular solution contained (mM): NaCl 150, KCl 5, CaCl2 2, MgCl2 1, HEPES 10, glucose 10 (pH 7.4). Current and voltage were recorded using an Axopatch-200B amplifier, sample at 4 kHz and filtered at 200 Hz, and digitized using a DigiData 1322A with pClamp 9.2 software (Axon Instruments, Foster City, Calif.).
The open probability (Po) and single channel current (i) were calculated by fitting all-point histograms with single- or multi-Gaussian curves. The ratio of the area under the fitted ‘open’ Gaussian to the total area under the entire Gaussian was taken as Po, and the difference between the fitted “closed” and “open” peaks was taken as i, single channel conductance (γ) was calculated by the equation: γ=i/(V−V5).

[1] = Mouse model of severe focal ischemia; details: in vivo
hippocampal neurons = assay: Membrane potential and elicited action potentials of isolated hippocampal neurons; type: cell-based, rat; details: 10 μM ZnPy
Experimental: FIG. 10. ZnPy potentiation of native M-current. A. M current recorded from an isolated rat dorsal root ganglion neuron, Vh was −60 mV, stepped to −20 mV, followed by a step to −50 mV, and stepped back to −20 mV. B. Histograms show M-current amplitudes in the presence and absence of 10 μM ZnPy (n=10, * p<0.001). M-current amplitudes were measured by fitting the IM relaxation with an exponential equation. The recording bath solution includes 1 μM TTX, 0.2 mM TEA, 1 mM 4-AP, 50 μM CNQX, and 10 μM bicuculline. C. Membrane potential of an isolated hippocampal neuron was monitored when 10 μM ZnPy was applied in bath solution followed by the addition of 15 μM linopirdine. D. Action potentials elicited by 200 pA current injection to a patched hippocampal neuron. The ZnPy treatments are as indicated.
Neuron Culture—Dorsal root ganglia (DRG) was collected from fourteen-day-old CD rat and incubated in collagenase (sigma, 500 U/ml, 15 min) and then trypsin (Sigma, 1 mg/ml, 30 min) at 37° C. Single DRG neurons were isolated by mechanical trituration with a fire-polished glass Pasteur pipette. Hippocampal tissue was dissected out from CD rat postnatal day 0. The tissue was digested with papain (Worthington Biochem, 20 U/ml, 30 min) and resuspended into single cells. The single-cell suspension was plated onto a monolayer of glial cells that were growing on coated cover slips. Cytosine-1-D-arabinofuranoside at 5 μM was added into the culture medium 24-48 hours later to arrest glial cell proliferation. The culture medium consisted of Neurobasal™ medium with B-27 supplement (Gibco), penicillin/streptomycin and 2 mM L-glutamine. All cells were maintained at 37° C. with 5% CO2 prior to recording.
Electrophysiological Recording—Standard whole-cell recording was used. Pipettes were pulled from borosilicate glass capillaries (TW150-4, World Precision Instruments, Sarasota, Fla.). […] Current and voltage were recorded using an Axopatch-200A amplifier, filtered at 1 kHz and digitized using a DigiData 1322A with pClamp 9.2 software (Axon Instruments, Foster City, Calif.). […]

KCNQ2(Y284C) = molecular target: T2, KCNQ2(Y284C) (Rattus norvegicus, UniProt O88943, Y284C); assay: Whole-cell recording of KCNQ2(Y284C) BFNC mutant in CHO cells; type: cell-based; details: 10 μM ZnPy
T2 construct: expressed in transfected cells; host or cells: CHO cells, transient
Experimental: FIG. 11. ZnPy effects on BFNC mutant channels expressed in CHO cells. A. whole-cell currents of KCNQ2(R207W), KCNQ2(Y284C), and KCNQ2(A306T) were recorded in the absence (left) and presence (right) of 10 μM ZnPy, Vh was −80 mV, in 10 mV voltage steps from −70 mV to +50 mV. B. a histogram plotting potentiation effects on KCNQ2 wild type (wt) and BFNC mutants (R207W, Y284C and […]) by ZnPy (filled box) and retigabine (open box) (n≧4, * p<0.001, ** p<0.05).
(§1) Mutagenesis—Starting from KCNQ cDNAs, the KCNQ2 point mutants were constructed by recombinant PCR and verified by sequencing.
Electrophysiological Recording—Standard whole-cell recording was used. Pipettes were pulled from borosilicate glass capillaries (TW150-4, World Precision Instruments, Sarasota, Fla.). When filled with the intracellular solution, the pipettes have resistances of […]. During the recording, constant perfusion of extracellular solution was maintained using a BPS perfusion system (ALA, Westbury, N.Y.). Pipette solution contained (mM): KCl 145, MgCl2 1, EGTA 5, HEPES 10, MgATP 5 (pH 7.3); extracellular solution contained (mM): NaCl 140, KCl 3, CaCl2 2, MgCl2 1.5, HEPES 10, glucose 10 (pH 7.4). Current and voltage were recorded using an Axopatch-200A amplifier, filtered at 1 kHz and digitized using a DigiData 1322A with pClamp 9.2 software (Axon Instruments, Foster City, Calif.). […]

KCNQ2 L275A = molecular target: T3, KCNQ2 L275A (Rattus norvegicus, UniProt O88943, L275A); assay: Whole-cell recording of KCNQ2 L275A mutant; type: cell-based
T3 construct: expressed in transfected cells
Excerpt: FIG. 9. KCNQ2 point mutants selectively lose ZnPy sensitivity. […] Each mutation site was indicated based on the predicted transmembrane regions. Dashed line indicates the potentiation level of wt KCNQ2 channel in the absence of ZnPy. […] C. Modeling of the S5-pore-S6 region of KCNQ2.
as §1
Electrophysiological Recording—Standard whole-cell recording was used. Pipettes were pulled from borosilicate glass capillaries (TW150-4, World Precision Instruments, Sarasota, Fla.). When filled with the intracellular solution, the pipettes have resistances of […]. During the recording, constant perfusion of extracellular solution was maintained using a BPS perfusion system (ALA, Westbury, N.Y.). Pipette solution contained (mM): KCl 145, MgCl2 1, EGTA 5, HEPES 10, MgATP 5 (pH 7.3); extracellular solution contained (mM): NaCl 140, KCl 3, CaCl2 2, MgCl2 1.5, HEPES 10, glucose 10 (pH 7.4). Current and voltage were recorded using an Axopatch-200A amplifier, filtered at 1 kHz and digitized using a DigiData 1322A with pClamp 9.2 software (Axon Instruments, Foster City, Calif.). Series resistance compensation was also used and set to 60-80%.

S=c1ccccn1[O][Zn][O]n1ccccc1=S [ZnPy, Zinc Pyrithione]
effect on channel activity (KCNQ1): potentiated; also recorded: potentiates KCNQ1
single channel open probability (Po) (KCNQ2; 0 mV, 10 μM ZnPy, control 0.13): 0.77±0.06 and 0.77
fitted unitary current amplitude (KCNQ2; 0 mV, 10 μM ZnPy, control 0.51 pA): 0.52 pA
fold increase in Po (KCNQ2; 10 μM ZnPy): 5.9 fold
single channel conductance (KCNQ2; in the presence or absence of ZnPy): 6.6±0.15 pS
neuroprotection [1]: significantly decreasing brain infarct volume and neurological deficit
effect on membrane potential (hippocampal neurons): noticeable hyperpolarization of membrane potential
effect on repetitive firing elicited by current injection (hippocampal neurons; 200 pA current injection): immediately abolished the repetitive firing
fold current increase (KCNQ2(Y284C)): more than 3 fold
change in V1/2 caused by ZnPy (KCNQ2 L275A): significant reduction on changes in V1/2
